# Legend:
# IMR-32 cells [1] = test: Estimation of apoptosis in IMR-32 cells by LDH assay; conditions: lysed cells = 100%
# Protocol: For this experiment IMR-32 cells were grown in MEM medium without I-Glutamine, Phenolphtaleine and sodium pyruvate 3000 IMR-32 cell/well seeded in 96 well plates. […] After 1 hour the cells were washed with PBS two times and PBS was replaced with the growth medium. […] Two rows were left untreated as Control. The LDH activity was measured by Lactate Dehydrogenase Assay Kit provided by Sigma Diagnostics. The calorimetric assay measures the residual pyruvate (substrate of the enzymatic reaction). The basal activity present in the medium alone (in the absence of Cells) was considered 0% and was systematically subtracted from each experimental value. Control untreated cells in two rows were lysed with Triton X-100 (0.02%) and were treated as samples with 100% LDH release.
# The assay used in the present study measures the residual level of enzyme substrate (pyruvate) using a calorimetric reaction. The more the substrate in the medium, the less enzyme released. Medium cells was taken as 0% enzyme activity released, and lysed cells in the medium as 100% released.
# IMR-32 cells [2] = test: Protection of IMR-32 cells against TBHP oxidative stress (Hoechst DNA survival assay); format: cell-based, Human; conditions: for apoptosis produced by TBHP: 1000 cells per well, 1 hour
# Text: Human neuroblastoma cell line (IMR-32), which is known to respond to oxidative stress by apoptosis (Kim et al, 1999), was used as an in vitro cell model. IMR32 cells are particularly sensitive to ROS and other toxicants because their p53 gene product is sequestered in the cytoplasm.
# Tert-butyl hydroperoxide (TBHP) was used as an oxidative stress-inducing agent. […] This will allow comparisons if studies relative to more generalized oxidative stress conditions (like the ones found in many neurodegenerative diseases) have to be performed on different cells phenotypes.
# Experiments were done using 1000 IMR-32 cells per well, for I hour of incubation. TBHP 50, 75 and 100 μM produced 78%, 87% and 87% apoptosis. TBHP 50 μM was selected to induce apoptosis in the other experiments.
# Different dilutions were used on IMR-32 cells along with TBHP. A mother solution 1:10 was constituted, starting from the lyophilized thylakoid fraction, in propylene glycol. Unless otherwise specified, the mentioned dilutions are dilutions of this mother solution. […] The latter dilution was adopted for further experimentation.
# IMR-32 Cells were grown in MEM supplemented with 10% FBS at 37° C. in a humidified atmosphere of 95% air and 5% CO2. The cells were seeded at a density of 1×10^4 cells/T25 Falcon tissue culture flasks and subcultured twice weekly. 48 h old cultures were used in all the experiments.
# 1000 or 3000 cells/well/100 uL were seeded in 96 well (Linbro flat bottom) plates in all the wells except well No. 12 of all the rows. After 24 h the cells were washed 2 times with 250 ul of PBS (pH 7.2) and 32 wells each were treated respectively with 100 and 200 uM solutions of TBHP (70% aqueous solution from Sigma Chemical Company) for 1 h. After 1 h the cells were gently washed 2 times with PBS before adding fresh growth medium. After 24 h the cell survival was assayed by a sensitive fluorimetric assay based on DNA binding fluorescent dye Hoechst by the following procedure. The test measures the total DNA of the population, a measurement which closely correlates with cell number. The medium was aspirated by gentle suction. Cells were rinsed with 250 ul PBS. PBS was aspirated with gentle suction. The rinse step was repeated. 100 uL lysis buffer (0.02% SDS in 1×SSC) was added in every well except the ones for DNA standard and Blank in row 12. The plate was incubated at 37° C. for 1 h with occasional swirling. 100 uL of 40 ug/mL of DNA was added to the DNA wells and 100 uL of 1×SSC buffer was added to the wells that were treated as Blank. 100 uL of 40 ug/ml of Hoechst 33258 in 1×SSC buffer was added to every well, and the plate was covered with Aluminum foil to protect it from light. The plate was agitated gently for 5 minutes and fluorescence was read at excitation wavelength 355 nm and emission wavelength 460 nm.
# CT untreated=100%: survival after TBHP: 42%, dead cells: 100−42=58%; population size after PC: 88% difference from CT: 100−88=12% Expected population size after TBHP+PC: 100−58−12=30%. Recovered survival: 60% Survival gain in %: 60−30=30 Protection exerted: 30:60×100=50%
# FRTS/1 was used as pre-treatment, co-treatment and post-treatment with the oxidative insult.
# The <<Cell damages TBHP/CT>> represents the damages caused by the oxidant calculated as a percentage from the survival of untreated controls. […] The <<Expected survival>> is 100-total expected decrease. […] The <<protection exerted by PC>> is calculated as reported above.
# [3] = Oxidation of PLPC micelles by peroxyl radicals from AAPH (absorbance at 234 nm); format: biochemical; conditions: FIG. 10
# Text: The peroxidation of unsaturated lipid moieties (reactions 1-3) causes changes in their structure which eventually changes the physical properties of biological membranes. During the lipid peroxidation a conjugated diene group is formed (see LOOH in reaction 3) which has an UV/Vis absorption maximum at λmax=234 nm (ε=29,500 M^−1cm^−1) and this allows a quantification of the oxidation product formed. To obtain quantitative data the lipid peroxidation has to be initiated in a controlled manner (reaction 1). Often azo initiators, which produce a well-defined flux of ROO. in aqueous, aerated solution, are employed to study lipid oxidation in in vitro experiments. […]
# Depending on possible reaction pathways of the antioxidant used the concentration time profiles of the detected LOOH display certain characteristics. By using an azo initiator as peroxyl radical source the amount of ROO. generated can be calculated and it is possible to determine the amount of lipids oxidized from the 234 nm absorption of the conjugated diene moiety. Also the amount of ROO. trapped during the lag phase can be determined.
# From the duration of a possible lag phase during lipid peroxidation experiments (FIG. 9) the amount of “trapped” radicals can be calculated. […]
# The reactions were monitored on a spectrophotometer at 37° C. for 10 h. […]
Compound,LDH release/TBHP (IMR-32 cells [1]; TBHP 25 uM alone) [%],LDH release/TBHP (IMR-32 cells [1]; TBHP 50 uM alone) [%],apoptosis produced by TBHP (IMR-32 cells [2]; TBHP 50 μM) [%],apoptosis produced by TBHP (IMR-32 cells [2]; TBHP 75 μM) [%],apoptosis produced by TBHP (IMR-32 cells [2]; TBHP 100 μM) [%],"Cell damages TBHP/CT (IMR-32 cells [2]; co-treatment experiment, TBHP 25 uM alone) [%]","Cell damages TBHP/CT (IMR-32 cells [2]; co-treatment experiment, TBHP 50 uM alone) [%]","Cell damages TBHP/CT (IMR-32 cells [2]; post-treatment experiment, TBHP 25 uM alone) [%]","Cell damages TBHP/CT (IMR-32 cells [2]; post-treatment experiment, TBHP 50 uM alone) [%]","Cell damages TBHP/CT (IMR-32 cells [2]; pre-treatment experiment, TBHP 25 uM alone) [%]","Cell damages TBHP/CT (IMR-32 cells [2]; pre-treatment experiment, TBHP 50 uM alone) [%]","survival after TBHP (IMR-32 cells [2]; worked calculation example, CT untreated=100%) [%]",oxidation kinetics of lipids compared to Trolox [3]
"CC(C)(C)OO [TBHP, Tert-butyl hydroperoxide]",64,92,78,87,87,39,67,38,66,58,70,42,–
CC1=C(/C=C/C(C)=C/C=C/C(C)=C/C=C/C=C(C)/C=C/C=C(C)/C=C/C2=C(C)CCCC2(C)C)C(C)(C)CCC1 [β-carotene],–,–,–,–,–,–,–,–,–,–,–,–,an antioxidant but with no lag phase

# Reference: US8632824B2, “Process of obtaining thylakoids from photosynthetic organisms; plant fractions obtained from the process; pure thylakoids; and methods of use of thylakoids as ROS scavengers, photo-protectors, biosensors, biofilters and bioreactors” (Purgenesis Technologies, Inc., priority 2000, dated 2014)
